{"source": "patent US9504676B2", "about": "“Molecules inhibiting a metabolic pathway involving the Syk protein tyrosine kinase and method for identifying said molecules” (CENTRE NATIONAL DE LA RECHERCHE SCIENTIFIQUE, priority 2008, dated 2016)", "system": "Spleen B lymphocyte cells", "experiment": "In vitro B lymphocyte proliferation induced by anti-IgM", "format": "cell-based, BALB/c mice", "description": "• 1) Chemical products and antibodies. A chemical bank of 3000 molecules (a varied subset) was acquired from ChemBridge, Inc. (San Diego, Calif.). Stocks of solutions of small molecules were prepared at a rate of 10 mM in DMSO (dimethylsulphoxide), except for C-13 (methyl 2-{5-[(3-benzyl-4-oxo-2-thioxo-1,3-thiazolidin-5-ylidene)methyl]-2-furyl}benzoate, ChemBridge ID No. 6197026) prepared in DMF (dimethylformamide). Unless specified otherwise, all the reagents were supplied by Sigma. Dinitrophenyl (DNP) hapten was acquired from Calbiochem. Sepharose GammaBind G and all the secondary antibodies were supplied by GE Health Amersham Biosciences. […] The binding of G4G11 with Syk was assessed by adding the 9E10 monoclonal antibody conjugated with HRP detecting the amino acid sequence EQKLISEEDLN of human c-myc protein located at the C-terminal end of the scFv fragment. To generate Syk mutants, targeted mutagenesis was used on GST:Syk 6-242 protein and the binding of G4G11 with the mutants was assessed in the presence of 5 μM of C-13. • 3) Cells, culture conditions and functional tests. […] The level of β-hexosaminidase released was measured 10 min later and the TNF-α titration was performed by means of a cytotoxicity test on L929 cells as described previously^10, 3 hours after stimulation. […]", "data": [{"smiles": "COC(=O)c1ccccc1-c1ccc(/C=C2/SC(=S)N(Cc3ccccc3)C2=O)o1", "note": "[Molecule C-13, methyl 2-{5-[(3-benzyl-4-oxo-2-thioxo-1,3-thiazolidin-5-ylidene)methyl]-2-furyl}benzoate]", "values": [{"measurement": "BCR-dependent B lymphocyte in vitro proliferation", "result": "inhibited in a dose-dependent fashion"}]}]}
